Source: US7799353B2, “Pharmaceutical mixture for hepatitis treatment and its preparation method” (Industrial Technology Research Institute, priority 2003, dated 2010)

Experiments:
[1] = tested on: d-galactosamine-induced liver damage; assay: Histopathological sections of liver of d-galactosamine-induced acute hepatitis animals; type: in vivo, rats; conditions: 300 mg/kg
Protocol: (§1) Rats are randomly divided, with six rats in each group. The animals fasted for 24 hr before the experiment. In the study, normal and d-galactosamine (Gal) groups are orally given with distilled water, testing groups are orally given with 1 g/kg of the test articles (JM, BMEC-1 or BMEC-101 from different processes) dissolving in distilled water, and rats in positive control group are orally administrated with silymarin (200 mg/kg) and guanine (300 mg/kg). One hour later, each group is i.p. with d-galactosamine (400 mg/kg), and the normal group is i.p. with saline. Four and eight hours after d-galactosamine injection, the same dosages are administrated again. Twenty-four hours after d-galactosamine injection, the animals are anesthetized with ether, and the blood is collected from the carotid artery. The serum is separated and stands still at room temperature for 1 hr, and centrifuged (Backman centrifuge, GS-6R, 3000 rpm) for 10 mins. The activities of rat serum GOT and GPT are measured.
After blood is collected, the liver of the acute hepatitis animal induced by d-galactosamine is separated, and liver tissue around 0.5 cm^3 in each folium is taken out. Those tissues are fixed in 10% neutral formalin for 1 to 2 weeks, then dehydrated and paraffin embedded by the dehydration and wax-exudation device, and cut into 4 to 5 μm liver slices by rotary microtome. The slices are stained with Haematoxylin and Eosin, and the pathological patterns are observed under an optical microscope.

[2] = tested on: d-galactosamine-induced acute hepatitis; assay: d-galactosamine-induced acute hepatitis in rats, serum GOT/GPT (Embodiment 6, silymarin and guanine positive controls); type: in vivo
Protocol: as §1

[3] = tested on: d-galactosamine-induced acute hepatitis; assay: d-galactosamine-induced acute hepatitis in rats, serum GOT/GPT (Embodiment 5, guanine positive control); type: in vivo; conditions: for reduction of sGOT value / reduction of sGPT value: vs d-galactosamine group
Protocol: Male rats are randomly divided, with five rats in the individual group and 200±20 g of each. In the study, normal and d-galactosamine (Gal) groups are orally given with distilled water, testing groups are orally given with test articles (JM or BMEC-1 from different processes) dissolving in distilled water, positive control group is orally given with guanine (300 mg/kg), and each administration dosage is 10 ml/kg.
Half-hour later, each group is i.p. with d-galactosamine (500 mg/kg) except the normal group. Four and eight hours after d-galactosamine injection, the same dosages are administrated again. Twenty-four hours after d-galactosamine injection, the animals are sacrificed for collecting the blood, and then the serum GOT (Glutamyl Oxaloacetic Transaminase) and GPT (Glutamyl Pyrubic Transaminase) activities are measured by using HITACHI auto-analyzing system (model 7050) with UV method.

[4] = Table 5, oral 300 × 3 mg/kg, Gal 400 mg/kg i.p., mean ± SEM, n = 6
[5] = Table 5 experiment, oral 300×3 mg/kg, vs d-galactosamine group
[6] = Table 2, oral 300 × 3 mg/kg, Gal 500 mg/kg i.p., serum 24 h after Gal, mean ± SEM, n = 5
[7] = Table 2 experiment, positive control, oral 300 × 3 mg/kg
[8] = Table 3, oral 300 × 3 mg/kg, Gal 500 mg/kg i.p., mean ± SEM, n = 5
[9] = Table 3 experiment, oral 300×3 mg/kg
[10] = Table 4 Batch 1, oral 300 × 3 mg/kg, Gal 500 mg/kg i.p., mean ± SEM, n = 5
[11] = Table 4 Batch 1, oral 300×3 mg/kg
[12] = Table 4 Batch 2, oral 300 × 3 mg/kg, Gal 500 mg/kg i.p., mean ± SEM, n = 5
[13] = Table 4 Batch 2, oral 300×3 mg/kg

Nc1nc2nc[nH]c2c(=O)[nH]1 [guanine]
Fibrosis ([1]; liver fibrosis grade): 1
Balloon degeneration ([1]; liver histopathology grade): 0
Bile duct proliferation ([1]; liver histopathology grade): 1
Fatty change ([1]; liver histopathology grade): 1
Inflammation ([1]; liver histopathology grade): 1
Mitosis ([1]; liver histopathology grade): 0
Necrosis ([1]; liver histopathology grade): 0
sGOT [2, 4]: 160.7 ± 33.5 U/L
sGPT [2, 4]: 55.1 ± 19.2 U/L
reduction of sGOT value [2, 5]: 70%
reduction of sGPT value [2, 5]: 79%
sGOT [3, 6]: 980.0 ± 92.5 U/L
sGPT [3, 6]: 589.6 ± 54.6 U/L
reduction of sGOT value [3, 7]: 24%
reduction of sGPT value [3, 7]: 32%
sGOT [3, 8]: 954.8 ± 122.1 U/L
sGPT [3, 8]: 514.4 ± 78.2 U/L
reduction of sGOT value [3, 9]: 45%
reduction of sGPT value [3, 9]: 59%
sGOT [3, 10]: 1055.6 ± 150.1 U/L
sGPT [3, 10]: 699.2 ± 103.6 U/L
reduction of sGOT value [3, 11]: 49%
reduction of sGPT value [3, 11]: 41%
GOT [3, 12]: 1080.0 ± 181.7 U/L
GPT [3, 12]: 584.0 ± 114.9 U/L
reduction of sGOT value [3, 13]: 42%
reduction of sGPT value [3, 13]: 49%
